According to PubChem BioAssay AID248 (DTP/NCI, 2004):
Several values for one entry are separate records, joined by “and”; a condition that tells them apart may be missing. Equal entries are not always repeated. Inconclusive results and toxic doses are left out. Cut-off read from the data, not from the text of the source: active = T/C of 150% or more; inactive = T/C below 125%.

Tested on: L1210 leukemia ip in BDF1 mice, survival T/C
Test: NCI In Vivo Anticancer Drug Screen. Data for tumor model L1210 Leukemia (intraperitoneal) in B6D2F1 (BDF1) mice
Conditions: endpoint: mean survival time, higher = longer survival
Outline: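 Mice bearing the transplanted tumor received compound or vehicle. Survival of the treated group was divided by that of the vehicle-treated control group to give the ratio.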

[1] = dose: 100.0 mg/kg/injection, schedule: Q01DX009 (ip), vehicle: saline
[2] = dose: 100.0 mg/kg/injection, schedule: Q04DX003 (ip), vehicle: saline
[3] = dose: 200.0 mg/kg/injection, schedule: Q01DX009 (ip), vehicle: saline
[4] = dose: 200.0 mg/kg/injection, schedule: Q04DX003 (ip), vehicle: saline
[5] = dose: 400.0 mg/kg/injection, schedule: Q01DX009 (ip), vehicle: saline
[6] = dose: 400.0 mg/kg/injection, schedule: Q04DX003 (ip), vehicle: saline
[7] = dose: 100.0 mg/kg/injection, schedule: Q01DX001 (ip), vehicle: saline
[8] = dose: 200.0 mg/kg/injection, schedule: Q01DX001 (ip), vehicle: saline
[9] = dose: 400.0 mg/kg/injection, schedule: Q01DX001 (ip), vehicle: saline
[10] = dose: 100.0 mg/kg/injection, schedule: Q04DX003 (ip), vehicle: saline with Tween-80
[11] = dose: 100.0 mg/kg/injection, schedule: Q04DX002 (ip), vehicle: saline with Tween-80
[12] = dose: 200.0 mg/kg/injection, schedule: Q04DX002 (ip), vehicle: saline with Tween-80
[13] = dose: 400.0 mg/kg/injection, schedule: Q04DX002 (ip), vehicle: saline with Tween-80
[14] = dose: 25.0 mg/kg/injection, schedule: Q04DX002 (ip), vehicle: saline with Tween-80

Measured: T/C

O=C(O)C1C2C=CC(CO)(O2)C1C(=O)O (configuration not stated)
inactive: [1] 97 % of control | [2] 97 % of control | [3] 100 % of control | [4] 92 % of control | [5] 96 % of control | [6] 95 % of control

O=C(Nc1ccccc1F)Nc1cc(Cl)ccc1Cl
inactive: dose: 100.0 mg/kg/injection, schedule: Q01DX009 (ip), vehicle: saline sonified 91 % of control | dose: 100.0 mg/kg/injection, schedule: Q04DX003 (ip), vehicle: Klucel (hydroxypropylcellulose) (HPC) 89 % of control | dose: 200.0 mg/kg/injection, schedule: Q01DX009 (ip), vehicle: saline sonified 93 % of control | dose: 200.0 mg/kg/injection, schedule: Q04DX003 (ip), vehicle: Klucel (hydroxypropylcellulose) (HPC) 94 % of control | dose: 400.0 mg/kg/injection, schedule: Q01DX009 (ip), vehicle: saline sonified 93 % of control | dose: 400.0 mg/kg/injection, schedule: Q04DX003 (ip), vehicle: Klucel (hydroxypropylcellulose) (HPC) 86 % of control

Cc1cc(Br)nc2ccccc12
inactive: [7] 92 % of control | [8] 89 % of control | [9] 97 % of control

CNc1nc2c(N)ncnc2n1C1OC(CO)C(O)C1O (configuration not stated)
inactive: dose: 12.5 mg/kg/injection, schedule: Q04DX002 (ip), vehicle: saline 100 % of control | dose: 25.0 mg/kg/injection, schedule: Q04DX002 (ip), vehicle: saline 103 % of control | dose: 25.0 mg/kg/injection, schedule: Q04DX002 (ip), vehicle: suspension in saline 104 % of control | dose: 50.0 mg/kg/injection, schedule: Q01DX001 (ip), vehicle: saline 104 % of control | dose: 50.0 mg/kg/injection, schedule: Q04DX002 (ip), vehicle: saline 113 % of control | dose: 50.0 mg/kg/injection, schedule: Q04DX002 (ip), vehicle: suspension in saline 106 % of control | [7] 110 % of control | dose: 100.0 mg/kg/injection, schedule: Q04DX002 (ip), vehicle: suspension in saline 106 % of control

COc1ccc(S(=O)O)cc1NC(C)=O
inactive: [7] 105 % of control | [1] 94 % of control | [2] 92 % of control and 100 % of control | [8] 96 % of control | [3] 87 % of control | [4] 93 % of control and 95 % of control | [9] 98 % of control | [5] 86 % of control | [6] 91 % of control and 93 % of control

CC(Cl)CO (configuration not stated)
inactive: dose: 75.0 mg/kg/injection, schedule: Q01DX001 (ip), vehicle: carboxymethylcellulose (CMC) 108 % of control | dose: 150.0 mg/kg/injection, schedule: Q01DX001 (ip), vehicle: carboxymethylcellulose (CMC) 97 % of control | dose: 300.0 mg/kg/injection, schedule: Q01DX001 (ip), vehicle: carboxymethylcellulose (CMC) 97 % of control

CC(C)CCC[C@@H](C)[C@H]1CC[C@H]2[C@@H]3CC=C4C[C@@H](Cl)CC[C@]4(C)[C@H]3CC[C@]12C
inactive: dose: 100.0 mg/kg/injection, schedule: Q01DX009 (sc), vehicle: Klucel (hydroxypropylcellulose) (HPC) 110 % of control | dose: 200.0 mg/kg/injection, schedule: Q01DX009 (sc), vehicle: Klucel (hydroxypropylcellulose) (HPC) 101 % of control | dose: 400.0 mg/kg/injection, schedule: Q01DX009 (sc), vehicle: Klucel (hydroxypropylcellulose) (HPC) 114 % of control

Cc1cc2oc(=O)c3c(c2c(O)c1CN1CCCCC1)CCCC3
inactive: dose: 100.0 mg/kg/injection, schedule: Q01DX001 (ip), vehicle: carboxymethylcellulose (CMC) 98 % of control | dose: 200.0 mg/kg/injection, schedule: Q01DX001 (ip), vehicle: carboxymethylcellulose (CMC) 98 % of control | dose: 400.0 mg/kg/injection, schedule: Q01DX001 (ip), vehicle: carboxymethylcellulose (CMC) 96 % of control

CCCNc1ncc(C(=O)O)c(=O)[nH]1
inactive: [10] 93 % of control

CCCP(=S)(CCC)P(=S)(CCC)CCC
inactive: dose: 100.0 mg/kg/injection, schedule: Q04DX002 (ip), vehicle: Klucel (hydroxypropylcellulose) (HPC) 100 % of control | dose: 200.0 mg/kg/injection, schedule: Q04DX002 (ip), vehicle: Klucel (hydroxypropylcellulose) (HPC) 92 % of control | dose: 400.0 mg/kg/injection, schedule: Q04DX002 (ip), vehicle: Klucel (hydroxypropylcellulose) (HPC) 92 % of control

CCc1ccc(/C=C\c2ccc(O)c(O)c2)[n+](C)c1
inactive: dose: 15.0 mg/kg/injection, schedule: Q01DX001 (ip), vehicle: saline 87 % of control | dose: 30.0 mg/kg/injection, schedule: Q01DX001 (ip), vehicle: saline 89 % of control

CCCCCCCCCCCCCCCCCCNc1ccc(C(=O)OCC)cc1
inactive: dose: 37.5 mg/kg/injection, schedule: Q01DX009 (ip), vehicle: saline 94 % of control | dose: 75.0 mg/kg/injection, schedule: Q01DX001 (ip), vehicle: saline 86 % of control | dose: 75.0 mg/kg/injection, schedule: Q01DX009 (ip), vehicle: saline 95 % of control | dose: 75.0 mg/kg/injection, schedule: Q04DX003 (ip), vehicle: saline 87 % of control | dose: 150.0 mg/kg/injection, schedule: Q01DX009 (ip), vehicle: saline 96 % of control | dose: 150.0 mg/kg/injection, schedule: Q04DX003 (ip), vehicle: saline 87 % of control | dose: 300.0 mg/kg/injection, schedule: Q01DX001 (ip), vehicle: saline 88 % of control | dose: 300.0 mg/kg/injection, schedule: Q04DX003 (ip), vehicle: saline 92 % of control

CSc1ccc(NC(=O)Oc2cc3ccccc3cc2C(=O)Nc2ccccc2)cc1
inactive: dose: 50.0 mg/kg/injection, schedule: Q01DX009 (ip), vehicle: saline with Tween-80 97 % of control and 99 % of control | dose: 100.0 mg/kg/injection, schedule: Q01DX001 (ip), vehicle: saline with Tween-80 95 % of control | dose: 100.0 mg/kg/injection, schedule: Q01DX009 (ip), vehicle: saline with Tween-80 96 % of control and 86 % of control | [11] 100 % of control and 92 % of control | [10] 87 % of control | dose: 200.0 mg/kg/injection, schedule: Q01DX001 (ip), vehicle: saline with Tween-80 87 % of control | dose: 200.0 mg/kg/injection, schedule: Q01DX009 (ip), vehicle: saline with Tween-80 96 % of control and 90 % of control | [12] 98 % of control and 91 % of control | dose: 200.0 mg/kg/injection, schedule: Q04DX003 (ip), vehicle: saline with Tween-80 94 % of control | dose: 400.0 mg/kg/injection, schedule: Q01DX001 (ip), vehicle: saline with Tween-80 88 % of control | [13] 95 % of control | dose: 400.0 mg/kg/injection, schedule: Q04DX003 (ip), vehicle: saline with Tween-80 91 % of control

CN1C(=O)CC(c2ccc(N3C(=O)C=CC3=O)cc2)C1=O (configuration not stated)
inactive: [14] 102 % of control

O=c1oc(Cl)cc2oc(=O)n(-c3ccccc3)c(=O)c12
inactive: dose: 6.25 mg/kg/injection, schedule: Q01DX009 (ip), vehicle: saline with Tween-80 106 % of control | dose: 12.5 mg/kg/injection, schedule: Q01DX009 (ip), vehicle: saline with Tween-80 98 % of control | dose: 25.0 mg/kg/injection, schedule: Q01DX009 (ip), vehicle: saline with Tween-80 93 % of control and 109 % of control | [14] 98 % of control | dose: 50.0 mg/kg/injection, schedule: Q04DX002 (ip), vehicle: saline with Tween-80 102 % of control | [11] 96 % of control and 98 % of control

CC1(C)OC2OC(C(O)c3cn(-c4ccccc4)nn3)C(O)C2O1 (configuration not stated)
inactive: [11] 97 % of control | [12] 93 % of control | [13] 110 % of control
